≈ marks a conversion by molar mass, not a printed value. Where “and” joins values, the source holds several entries; their conditions need not be identical. Equal entries are not always repeated.

Assay [1] concerns Mycobacterium tuberculosis. Put plainly: Anti-tubercular activity against Mycobacterium tuberculosis H37Rv strain. It counts as functional.
Assay [2] relates to Staphylococcus aureus. Put plainly: Antimicrobial activity against Staphylococcus aureus MSCL 334 assessed as inhibition of bacterial growth incubated for 24 hrs by standardized broth dilution method. The assay is classed as functional. In general terms: Dilution methods test growth across graded concentrations, often in twofold steps.
Assay [3] deals with Escherichia coli. Description: Antimicrobial activity against Escherichia coli MSCL 332 assessed as inhibition of bacterial growth incubated for 24 hrs by standardized broth dilution method. The assay is classed as functional.
The subject of assay [4] is Bacillus subtilis. Put plainly: Antimicrobial activity against Bacillus subtilis assessed as inhibition of bacterial growth incubated for 24 hrs by standardized broth dilution method. The assay is classed as functional.
Assay [5] concerns Mycolicibacterium phlei. Put plainly: Antibacterial activity against Mycobacterium phlei DSM 750 by microdilution assay. It counts as functional.
Assay [6] deals with Bacillus subtilis. Put plainly: Antibacterial activity against Bacillus subtilis DSM 10 by microdilution assay. The assay is classed as functional.
Assay [7] has as its system Acinetobacter baumannii. Description: Antibacterial activity against Acinetobacter baumannii. It counts as functional.
Assay [8] relates to Enterococcus faecalis. Description: Antibacterial activity against Enterococcus faecalis. The assay is classed as functional.
Assay [9] relates to Staphylococcus aureus. Description: Antibacterial activity against healthcare-acquired methicillin-resistant Staphylococcus aureus. It counts as functional.
Assay [10] has as its system Staphylococcus aureus. Description: Antibacterial activity against community-acquired methicillin-resistant Staphylococcus aureus. The assay is classed as functional.
Assay [11] deals with Staphylococcus aureus. Description: Antibacterial activity against methicillin-sensitive Staphylococcus aureus. The assay is classed as functional, organism-based.
Assay [12] has as its system Streptococcus pneumoniae. Put plainly: Antibacterial activity against Streptococcus pneumoniae. The assay is classed as functional.
Assay [13] concerns the target DNA gyrase subunit A/DNA gyrase subunit B (Mycobacterium tuberculosis (strain ATCC 25618 / H37Rv), UniProt P9WG45+P9WG47). Put plainly: Inhibition of Mycobacterium tuberculosis DNA gyrase. It counts as protein-complex assay.
Assay [14] concerns the target DNA gyrase (Escherichia coli, UniProt P0AES4+P0AES6). Description: Inhibition of Escherichia coli DNA gyrase. The assay is classed as protein-complex assay.
Assay [15] concerns Mycobacterium tuberculosis. Put plainly: Antitubercular activity against Mycobacterium tuberculosis H37Rv MTCC-200. It counts as functional.
In assay [16] the test system is Salmonella typhimurium. Put plainly: Antibacterial activity against Salmonella typhimurium assessed as inhibition was bacterial growth by broth micro dilution method. It counts as functional, Salmonella enterica subsp. enterica serovar Typhimurium. The conditions noted are these: Salmonella enterica.
A short description of assay [17]: Inhibition of Salmonella typhimurium DNA gyrase. Also on record: species or system Salmonella enterica subsp. enterica serovar Typhimurium.
The subject of assay [18] is Salmonella enterica. Put plainly: Antibacterial activity against Salmonella enterica assessed as inhibition was bacterial growth by broth micro dilution method. It counts as functional.
Assay [19] has as its target DNA gyrase (Staphylococcus aureus, UniProt P0A0K8+P20831). Description: Inhibition of Staphylococcus aureus DNA gyrase. It counts as protein-complex assay.
For assay [20], the system named is Staphylococcus aureus. Description: Antibacterial activity against methicillin-resistant Staphylococcus aureus. It counts as functional, organism-based.
In assay [21] the test system is Escherichia coli. Description: Antibacterial activity against Escherichia coli DSM 1116 by microdilution assay. It counts as functional.
Assay [22] relates to Pseudomonas aeruginosa. Put plainly: Antimicrobial activity against Pseudomonas aeruginosa ATCC 27853 incubated for 18 to 24 hrs by double micro-dilution method. It counts as functional. The conditions noted are these: time 18-24 hrs.
The subject of assay [23] is Acinetobacter haemolyticus. Description: Antimicrobial activity against Acinetobacter haemolyticus ATCC 19002 incubated for 18 to 24 hrs by double micro-dilution method. As to conditions: time 18-24 hrs. The assay is classed as functional.
Assay [24] relates to Enterococcus faecalis. Description: Antimicrobial activity against Enterococcus faecalis ATCC 29212 incubated for 18 to 24 hrs by double micro-dilution method. The conditions noted are these: time 18-24 hrs. The assay is classed as functional.
Assay [25] relates to Klebsiella pneumoniae. Put plainly: Antimicrobial activity against Klebsiella pneumoniae ATCC 13883 incubated for 18 to 24 hrs by double micro-dilution method. The assay is classed as functional. The conditions noted are these: time 18-24 hrs.
In assay [26] the test system is Staphylococcus aureus. Put plainly: Antimicrobial activity against Staphylococcus aureus ATCC 25923 incubated for 18 to 24 hrs by double micro-dilution method. The conditions noted are these: time 18-24 hrs. It counts as functional.
For assay [27], the system named is Listeria monocytogenes. Description: Antimicrobial activity against Listeria monocytogenes assessed as inhibition of visible growth incubated for 24 hrs by agar-dilution method. The assay is classed as functional.
The test system of assay [28] is Salmonella enterica subsp. enterica serovar Gallinarum. Put plainly: Antimicrobial activity against Salmonella gallinarum assessed as inhibition of visible growth incubated for 24 hrs by agar-dilution method. The assay is classed as functional.

Chain of DNA gyrase subunit A/DNA gyrase subunit B (P9WG45 whole entry): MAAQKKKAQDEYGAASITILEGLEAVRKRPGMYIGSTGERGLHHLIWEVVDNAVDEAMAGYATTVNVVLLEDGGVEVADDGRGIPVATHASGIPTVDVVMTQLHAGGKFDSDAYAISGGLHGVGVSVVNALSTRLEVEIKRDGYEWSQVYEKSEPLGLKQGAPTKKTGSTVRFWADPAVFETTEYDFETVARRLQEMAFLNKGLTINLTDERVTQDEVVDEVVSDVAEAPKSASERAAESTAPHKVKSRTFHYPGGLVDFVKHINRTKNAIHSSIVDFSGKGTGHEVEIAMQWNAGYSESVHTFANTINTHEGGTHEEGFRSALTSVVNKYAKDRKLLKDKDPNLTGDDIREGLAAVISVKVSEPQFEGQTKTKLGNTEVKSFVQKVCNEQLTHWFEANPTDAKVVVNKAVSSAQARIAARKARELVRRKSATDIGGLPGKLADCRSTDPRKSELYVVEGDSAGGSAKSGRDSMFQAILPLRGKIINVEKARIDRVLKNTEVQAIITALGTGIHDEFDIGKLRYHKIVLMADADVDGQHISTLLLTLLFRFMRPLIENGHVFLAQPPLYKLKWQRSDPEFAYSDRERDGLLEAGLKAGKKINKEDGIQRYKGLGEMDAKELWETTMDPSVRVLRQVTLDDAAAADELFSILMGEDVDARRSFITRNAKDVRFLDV
Chain of DNA gyrase subunit A/DNA gyrase subunit B (P9WG47 whole entry): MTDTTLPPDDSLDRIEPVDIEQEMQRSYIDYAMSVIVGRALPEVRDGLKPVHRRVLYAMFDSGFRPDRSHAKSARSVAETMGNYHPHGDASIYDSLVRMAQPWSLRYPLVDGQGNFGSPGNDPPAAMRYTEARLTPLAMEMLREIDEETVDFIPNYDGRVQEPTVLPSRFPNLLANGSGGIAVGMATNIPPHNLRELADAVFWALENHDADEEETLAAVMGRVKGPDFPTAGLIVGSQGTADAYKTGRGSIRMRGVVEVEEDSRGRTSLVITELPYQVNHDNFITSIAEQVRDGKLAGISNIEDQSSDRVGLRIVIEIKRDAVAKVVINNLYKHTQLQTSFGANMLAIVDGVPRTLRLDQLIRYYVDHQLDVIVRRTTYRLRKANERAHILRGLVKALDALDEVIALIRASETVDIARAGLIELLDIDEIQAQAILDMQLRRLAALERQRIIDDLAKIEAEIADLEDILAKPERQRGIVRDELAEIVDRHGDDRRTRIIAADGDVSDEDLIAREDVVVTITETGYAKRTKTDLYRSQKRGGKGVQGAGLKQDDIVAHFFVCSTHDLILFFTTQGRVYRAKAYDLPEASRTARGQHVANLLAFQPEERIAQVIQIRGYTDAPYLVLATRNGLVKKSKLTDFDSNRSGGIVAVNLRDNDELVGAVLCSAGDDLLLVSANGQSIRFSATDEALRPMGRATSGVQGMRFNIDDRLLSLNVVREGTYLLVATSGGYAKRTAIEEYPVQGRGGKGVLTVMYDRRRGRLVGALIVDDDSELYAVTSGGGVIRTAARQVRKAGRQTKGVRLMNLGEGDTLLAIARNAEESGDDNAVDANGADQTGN
Chain of DNA gyrase (Staphylococcus aureus, UniProt P0A0K8+P20831) (P0A0K8 whole entry): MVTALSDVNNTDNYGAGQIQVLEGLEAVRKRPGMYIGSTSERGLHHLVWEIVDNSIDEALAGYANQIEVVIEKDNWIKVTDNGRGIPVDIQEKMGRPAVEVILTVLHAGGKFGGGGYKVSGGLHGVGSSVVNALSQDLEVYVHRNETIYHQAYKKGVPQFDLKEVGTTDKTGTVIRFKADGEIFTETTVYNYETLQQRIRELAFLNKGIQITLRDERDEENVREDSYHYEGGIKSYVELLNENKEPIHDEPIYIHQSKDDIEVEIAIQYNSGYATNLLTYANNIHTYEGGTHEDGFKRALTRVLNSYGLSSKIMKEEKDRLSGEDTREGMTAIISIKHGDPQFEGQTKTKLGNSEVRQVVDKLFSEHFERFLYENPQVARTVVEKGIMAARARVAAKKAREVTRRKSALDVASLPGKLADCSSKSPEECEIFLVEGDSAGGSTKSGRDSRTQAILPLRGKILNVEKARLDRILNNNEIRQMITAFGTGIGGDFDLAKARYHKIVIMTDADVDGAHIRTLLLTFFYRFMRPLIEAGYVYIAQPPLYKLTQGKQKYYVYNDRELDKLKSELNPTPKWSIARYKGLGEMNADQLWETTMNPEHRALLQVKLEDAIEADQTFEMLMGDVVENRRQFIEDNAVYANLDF
Chain of DNA gyrase (Staphylococcus aureus, UniProt P0A0K8+P20831) (P20831 whole entry): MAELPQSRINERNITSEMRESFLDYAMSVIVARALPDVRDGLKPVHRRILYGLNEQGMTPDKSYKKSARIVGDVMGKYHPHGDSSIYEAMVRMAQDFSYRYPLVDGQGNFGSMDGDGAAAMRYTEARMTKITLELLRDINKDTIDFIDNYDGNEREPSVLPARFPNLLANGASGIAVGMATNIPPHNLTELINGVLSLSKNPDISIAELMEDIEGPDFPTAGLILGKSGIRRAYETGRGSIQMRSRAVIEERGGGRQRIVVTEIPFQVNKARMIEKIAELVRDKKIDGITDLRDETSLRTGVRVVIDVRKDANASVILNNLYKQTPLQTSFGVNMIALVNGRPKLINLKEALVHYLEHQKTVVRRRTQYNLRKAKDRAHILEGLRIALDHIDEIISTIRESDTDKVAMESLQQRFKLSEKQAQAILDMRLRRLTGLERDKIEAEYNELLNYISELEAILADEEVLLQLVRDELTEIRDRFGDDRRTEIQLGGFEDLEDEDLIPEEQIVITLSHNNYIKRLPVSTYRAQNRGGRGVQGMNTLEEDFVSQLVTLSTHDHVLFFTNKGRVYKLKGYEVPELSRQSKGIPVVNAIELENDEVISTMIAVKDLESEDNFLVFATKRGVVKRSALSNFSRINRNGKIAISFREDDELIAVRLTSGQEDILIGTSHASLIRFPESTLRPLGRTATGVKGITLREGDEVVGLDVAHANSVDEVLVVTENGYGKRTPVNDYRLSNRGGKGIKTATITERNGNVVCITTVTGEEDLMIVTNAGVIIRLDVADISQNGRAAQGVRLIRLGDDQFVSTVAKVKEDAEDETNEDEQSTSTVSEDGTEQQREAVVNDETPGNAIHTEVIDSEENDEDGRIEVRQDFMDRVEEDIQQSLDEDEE

On to `COc1cc(/C=N/Nc2nc(-c3ccc(Br)cc3)cs2)ccc1Oc1ccnc2cc(Cl)ccc12`, for which it took 3.12 µM (≈ 1.77 µg/mL) to inhibit growth in assay [1] (MIC).
For the compound `CCCCCCCOCC[N+]1(C)CCc2ccccc2C1.[I-]` (stereo not drawn), the MIC in [2] came to 8 µg/mL; in assay [3], 128 µg/mL; in [4], 128 µg/mL.
On to `COc1c(NC(=O)c2ccc(NC(=O)[C@H](CC#N)NC(=O)c3ccc(NC(=O)/C(C)=C/c4ccc(O)cc4)cc3)c(OC)c2O)ccc(C(=O)O)c1O`, for which the MIC in assay [5] was 2 µM (≈ 1.45 µg/mL); in assay [6], 0.062 µM (≈ 0.0449 µg/mL).
`COc1cc(/C=N/Nc2nc(-c3ccc([N+](=O)[O-])cc3)cs2)ccc1Oc1ccnc2cc(Cl)ccc12` registered a minimum inhibitory concentration (MIC) in assay [1] of 3.12 µM (≈ 1.66 µg/mL).
`COc1c(N2CCCCC2)c(F)cc2c(=O)c(C(=O)N3CCSC3)cn(C3CC3)c12`: the MIC in assay [7] was 12.6 µg/mL (≈ 29.2 µM); in assay [8], 12.6 µg/mL (≈ 29.2 µM); in assay [9] it was 0.62 µg/mL (≈ 1.44 µM); in assay [10] it was 25 µg/mL (≈ 57.9 µM); in assay [11], 0.39 µg/mL (≈ 0.904 µM); in [12], 25 µg/mL (≈ 57.9 µM). In [13], this compound returned an IC50 of 105000 nM.
As for `COc1cc(C(=O)NCC(=O)O)ccc1NC(=O)c1cc(Cl)c(Cl)[nH]1`, the half-inhibitory concentration (IC50) in [14] was determined as 120 nM.
The same measure, in the same setting: the value for `O=C(O)c1ccc(CNC(=O)[C@H](Cc2ccc(O)cc2)NC(=O)c2cc(Br)c(Br)[nH]2)cc1` was 619 nM.
`COc1c(NC(=O)c2ccc(NC(=O)[C@@H](NC(=O)c3ccc(NC(=O)/C(C)=C/c4ccc(O)cc4)cc3)C(C)O)c(OC)c2O)ccc(C(=O)O)c1O` (stereo partly drawn): the MIC turned out to be 2 µM (≈ 1.46 µg/mL) in assay [5] and 0.5 µM (≈ 0.364 µg/mL) in [6].
With `CCCCCCCOCC[N+]1(C)CCCc2ccccc21.[I-]` (stereo not drawn), the MIC was 1 µg/mL in assay [2], 128 µg/mL in assay [3] and 2 µg/mL in assay [4].
Compound `CCNC(=O)Nc1nc2ccc(NC(=O)Cc3csc(NC(C)=O)n3)cc2s1` returned an IC50 in [14] of 5600 nM.
For `COc1ccc(C(=O)Oc2ccc(/C=C3\C(=O)Nc4ccccc43)cc2)cc1OC`, the MIC in assay [15] is 31 µg/mL (≈ 77.2 µM).
On to `COc1c(N2CC3(CC3)[C@@](C)(N)C2)c(F)cc2c(=O)c(C(=O)O)cn([C@@H]3C[C@@H]3F)c12`, for which the values for the minimum inhibitory concentration (MIC) in assay [16] and in assay [18] were 0.13 µg/mL (≈ 0.31 µM) and 0.06 µg/mL (≈ 0.143 µM), respectively. Further, in assay [17], the half-inhibitory concentration (IC50) was 0.32 µg/mL and 0.25 µg/mL.
`CCn1cc(C(=O)N[C@@H](CC2CCCCC2)C(=O)N[C@H](CCCNC(=N)N)C(=O)N[C@@H](CC2CCCCC2)C(=O)N[C@H](CCCNC(=N)N)C(=O)N[C@@H](CC2CCCCC2)C(=O)N[C@H](CCCNC(=N)N)C(=O)N[C@@H](CC2CCCCC2)C(N)=O)c(=O)c2ccc(C)nc21`: the IC50 was 25000 nM in assay [19], 13 µg/mL (≈ 9.9 µM) in [11] and 13 µg/mL (≈ 9.9 µM) in assay [20].
For the compound `COc1cc(/C=N/Nc2nc(-c3ccc(Cl)cc3)cs2)ccc1Oc1ccnc2cc(Cl)ccc12`, in [1], the MIC came out at 3.12 µM (≈ 1.63 µg/mL).
For `O=C1COc2ccc(CNC3CCN(CCn4c(=O)c5nocc5c5ccc(F)cc54)CC3)nc2N1`, the IC50 in assay [14] was 426 nM.
The compound `O=C1COc2ccc(CNC3CCN(CCn4c(=O)c5ncoc5c5ccc(F)cc54)CC3)nc2N1` gave a half-maximal inhibitory concentration (IC50) in assay [14] of 426 nM.
The same measure, in the same setting: the value for `O=C1COc2cc(F)c(CNC3CCN(CCn4c(=O)c5nocc5c5ccc(F)cc54)CC3)nc2N1` was 411 nM.
With `COc1c(NC(=O)c2ccc(NC(=O)C(C)(C)NC(=O)c3ccc(NC(=O)/C(C)=C/c4ccc(O)cc4)cc3)c(OC)c2O)ccc(C(=O)O)c1O`, the minimum inhibitory concentration (MIC) in assay [5] stood at 2 µM (≈ 1.43 µg/mL); in assay [21] it was 0.25 µM (≈ 0.178 µg/mL); in [21] (Escherichia coli, DSM 1116, read-out: MIC) it was 0.5 µM (≈ 0.356 µg/mL); in [6], 0.5 µM (≈ 0.356 µg/mL).
For `O=C(O)c1cn(C2CC2)c2cc(N3CCN(Cn4nc(CN5CCN(c6ccccc6)CC5)n(Cc5ccccc5)c4=O)CC3)c(F)cc2c1=O`, the minimal inhibitory concentration (MIC) in assay [22] was 0.125 µg/mL (≈ 0.18 µM); in assay [23] it was 0.125 µg/mL (≈ 0.18 µM); in assay [24], 8 µg/mL (≈ 11.5 µM); in assay [25], 0.125 µg/mL (≈ 0.18 µM); in assay [26] it was 8 µg/mL (≈ 11.5 µM). This compound had an IC50 in [14] of 750 nM.
In the case of `O=C(O)c1cn(C2CC2)c2cc(N3CCNCC3)c(F)cc2c1=O` [CIPROFLOXACIN], the MIC in assay [16] was determined as 0.016 µg/mL (≈ 0.0483 µM); in assay [7], 0.78 µg/mL (≈ 2.35 µM); in assay [8] it was 0.79 µg/mL (≈ 2.38 µM); in [9] it was 0.2 µg/mL (≈ 0.604 µM); in assay [27], 0.125 µg/mL (≈ 0.377 µM); in assay [10], 6.3 µg/mL (≈ 19 µM). The MIC in assay [28] was determined as 0.125 µg/mL (≈ 0.377 µM); in assay [11] it was 0.098 µg/mL (≈ 0.296 µM); in assay [12] it was 0.39 µg/mL (≈ 1.18 µM); in [1] it was 12.5 µM (≈ 4.14 µg/mL); in assay [18] it was 0.016 µg/mL (≈ 0.0483 µM). For the same compound, the IC50 in assay [17] came to 0.25 µg/mL (≈ 0.754 µM).
`CCn1cc(C(=O)O)c(=O)c2ccc(C)nc21` [NALIDIXIC ACID]: the IC50 in [11] and in [20] was 47 µg/mL (≈ 202 µM) each time.
`NC(=O)c1cnccn1` [PYRAZINAMIDE]: inhibition of growth in [1] (MIC) required 3.12 µM (≈ 0.384 µg/mL).

What is called MIC is the lowest concentration that inhibits growth of the organism. One may read the IC50 as the concentration that inhibits the measured activity by half. A high value points to lower potency.
